Patent US9957270B2, “Fused pyrimidine-based hydroxamate derivatives” (Agency for Science, Technology and Research, priority 2014, dated 2018)
pIC50: −log10 of the molar value. Where two headings read alike, the source gives them in different places.

How the values were obtained:
HepG2 = assay: Anti-proliferative assay (cellular IC50), HepG2; details: Homo sapiens
Method: (§1) Cells were cultivated at 37° C., 5% CO2 in media containing 10% FBS and 2 mM glutamine Cells were routinely monitored with MycoAlert™ PLUS Mycoplasma Detection Kit (Lonza Walkersville, Inc.) to make sure they were mycoplasma free. Antibiotics (100 U/mL of penicillin and 100 μg/mL of streptomycin) were only added to the media used for compound dilution and cells in 96-well assay plates.
(§2) For a typical screening experiment, cells (100 μL/well) are inoculated into 96 well microtiter plates at plating densities ranging from 2,000 to 30,000 cells/well depending on the doubling time of individual cell lines and assay linearity. […] Suspension cells are treated with test compounds immediately after cell inoculation.
(§3) Test compounds are serially diluted (3-fold or 4-fold, 8-concentration) using the same media and added to the plates (15 to 25 μL/well). After 72 h of cultivation, the plates are assayed for cell cytotoxicity/viability by using the following two methods.
(§4) Cells in plates are fixed with cold trichloroacetic acid (TCA) (50% w/v in DI water, 1/4 volume of the medium in each well), and incubated at 4° C. for 1 h (adherent cells) or 2 h (suspension cells). The plates are washed 5 times (tap water×3, DI water×2) and air-dried. SRB solution 0.4% (w/v) in 1% acetic acid is added to each well (60 μL/well) and the plates are incubated at room temperature for 30 min, then washed with 1% acetic acid solution 4 times, and air-dried.
(§5) The plates are added CellTiter-Glo® Reagent (95 μL/well) and read the luminescence on a BioTek H4 reader per manufacture's protocol.
(§6) The raw data are processed using BioTek's Software Gen5 (v2.03.01) to generate inhibitory IC50 values.

A375 = assay: Anti-proliferative assay (cellular IC50), A375; details: Homo sapiens, A-375, read-out: In Vitro Cellular IC50 A375
Method: as §1, §2, §3, §4, §5, §6

MOLT-4 = assay: Anti-proliferative assay (cellular IC50), MOLT-4; details: Homo sapiens
Method: as §1, §2, §3, §4, §5, §6

A-431 = assay: Anti-proliferative assay (cellular IC50), A-431; details: Homo sapiens, A-431, read-out: In Vitro Cellular IC50 A-431
Method: as §1, §2, §3, §4, §5, §6

Ramos = assay: Anti-proliferative assay (cellular IC50), Ramos; details: Homo sapiens, read-out: In Vitro Cellular IC50 Ramos
Method: as §1, §2, §3, §4, §5, §6

MDA-MB-468 = assay: Anti-proliferative assay (cellular IC50), MDA-MB-468; details: Homo sapiens, MDA-MB-468, read-out: In Vitro Cellular IC50 MDA-MB-468
Method: as §1, §2, §3, §4, §5, §6

BT474 = assay: Anti-proliferative assay (cellular IC50), BT474; details: Homo sapiens, BT-474, read-out: In Vitro Cellular IC50 BT474
Method: as §1, §2, §3, §4, §5, §6

PC-3 = assay: Anti-proliferative assay (cellular IC50), PC-3; details: Homo sapiens
Method: as §1, §2, §3, §4, §5, §6

NCI-H522 = assay: Anti-proliferative assay (cellular IC50), NCI-H522; details: Homo sapiens, NCI-H522, read-out: In Vitro Cellular IC50 NCI-H522
Method: as §1, §2, §3, §4, §5, §6

ACHN = assay: Anti-proliferative assay (cellular IC50), ACHN; details: Homo sapiens, read-out: In Vitro Cellular IC50 ACHN
Method: as §1, §2, §3, §4, §5, §6

MDA-MB-231 = assay: Anti-proliferative assay (cellular IC50), MDA-MB-231; details: Homo sapiens, MDA-MB-231, read-out: In Vitro Cellular IC50 MDA-MB-231
Method: as §1, §2, §3, §4, §5, §6

RPMI-8226 = assay: Anti-proliferative assay (cellular IC50), RPMI-8226; details: Homo sapiens, RPMI-8226, read-out: In Vitro Cellular IC50 RPMI-8226
Method: as §1, §2, §3, §4, §5, §6

HL-60 = assay: Anti-proliferative assay (cellular IC50), HL-60; details: Homo sapiens, HL-60, read-out: In Vitro Cellular IC50 HL-60
Method: as §1, §2, §3, §4, §5, §6

Pfeiffer = assay: Anti-proliferative assay (cellular IC50), Pfeiffer; details: Homo sapiens, read-out: In Vitro Cellular IC50 Pfeiffer
Method: as §1, §2, §3, §4, §5, §6

BxPC-3 = assay: Anti-proliferative assay (cellular IC50), BxPC-3; details: Homo sapiens, BXPC-3, read-out: In Vitro Cellular IC50 BxPC-3
Method: as §1, §2, §3, §4, §5, §6

MDA-MB-436 = assay: Anti-proliferative assay (cellular IC50), MDA-MB-436; details: Homo sapiens, MDA-MB-436, read-out: In Vitro Cellular IC50 MDA-MB-436
Method: as §1, §2, §3, §4, §5, §6

MCF7 = assay: Anti-proliferative assay (cellular IC50), MCF7; details: Homo sapiens
U87 MG = assay: Anti-proliferative assay (cellular IC50), U87 MG; details: Homo sapiens, U-87 MG, read-out: In Vitro Cellular IC50 U87 MG
Method: as §1, §2, §3, §4, §5, §6

HCT 116 = assay: cells; details: Homo sapiens
Method: as §1, §2, §3, §4, §5, §6

SUP-B15 = assay: Anti-proliferative assay (cellular IC50), SUP-B15; details: Homo sapiens, SUP-B15, read-out: In Vitro Cellular IC50 SUP-B15
Method: as §1, §2, §3, §4, §5, §6

COLO 205 = assay: cells; details: Homo sapiens
Method: as §1, §2, §3, §4, §5, §6

PANC-1 = assay: Anti-proliferative assay (cellular IC50), PANC-1; details: Homo sapiens, PANC-1, read-out: In Vitro Cellular IC50 PANC-1
Method: as §1, §2, §3, §4, §5, §6

4T1 = assay: cells; details: Mus musculus, 4T1, read-out: In Vitro Cellular IC50 4T1
Method: as §1, §2, §3, §4, §5, §6

K-562 = assay: Anti-proliferative assay (cellular IC50), K-562; details: Homo sapiens
Method: as §1, §2, §3, §4, §5, §6

MV-4-11 = assay: cells; details: Homo sapiens
SK-HEP1 = assay: Anti-proliferative assay (cellular IC50), SK-HEP1; details: Homo sapiens, SK-HEP1, read-out: In Vitro Cellular IC50 SK-HEP1
Method: as §1, §2, §3, §4, §5, §6

[1] = target: HDAC (HeLa nuclear extracts); assay: HDAC enzyme assay, HeLa nuclear extracts; details: read-out: In Vitro Enzymatic IC50 HDAC (HeLa)
[2] = HepG2, 72 h, read-out: In Vitro Cellular IC50 HepG2
[3] = HepG2, read-out: In Vitro Cellular IC50 HepG2
[4] = MOLT-4, 72 h, read-out: In Vitro Cellular IC50 MOLT-4
[5] = MOLT-4, read-out: In Vitro Cellular IC50 MOLT-4
[6] = PC-3, 72 h, read-out: In Vitro Cellular IC50 PC-3
[7] = PC-3, read-out: In Vitro Cellular IC50 PC-3
[8] = MCF7, 72 h, read-out: In Vitro Cellular IC50 MCF7
[9] = MCF7, read-out: In Vitro Cellular IC50 MCF7
[10] = HCT-116, 72 h, read-out: In Vitro Cellular IC50 HCT 116
[11] = HCT-116, read-out: In Vitro Cellular IC50 HCT 116
[12] = COLO 205, 72 h, read-out: In Vitro Cellular IC50 COLO 205
[13] = COLO 205, read-out: In Vitro Cellular IC50 COLO 205
[14] = K562, 72 h, read-out: In Vitro Cellular IC50 K-562
[15] = K562, read-out: In Vitro Cellular IC50 K-562
[16] = MV4-11, 72 h, read-out: In Vitro Cellular IC50 MV-4-11
[17] = MV4-11, read-out: In Vitro Cellular IC50 MV-4-11

Row | SMILES | pIC50 (HepG2; [2]) | pIC50 (HepG2; [3]) | pIC50 (A375) | pIC50 (MOLT-4; [4]) | pIC50 (MOLT-4; [5]) | pIC50 (Ramos) | pIC50 (MDA-MB-468) | pIC50 (BT474) | pIC50 (PC-3; [6]) | pIC50 (PC-3; [7]) | pIC50 (NCI-H522) | pIC50 (ACHN) | pIC50 (MDA-MB-231) | pIC50 (RPMI-8226) | pIC50 (HL-60) | pIC50 (Pfeiffer) | pIC50 (BxPC-3) | pIC50 (MDA-MB-436) | pIC50 (MCF7; [8]) | pIC50 (MCF7; [9]) | other results
1 | CS(=O)(=O)N1CCN(Cc2cc3nc(-c4cccc5[nH]ncc45)nc(N4CCOCC4)c3s2)CC1 [GDC-0941, reference compound] | < 5.00 | < 5.00 | 5.70 to 6.30 | > 6.30 | > 6.30 | 5.00 to 5.70 | 5.00 to 5.70 | > 6.30 | 5.70 to 6.30 | 5.70 to 6.30 | < 5.00 | 5.70 to 6.30 | < 5.00 | 5.00 to 5.70 | 5.70 to 6.30 | > 6.30 | 5.70 to 6.30 | 5.70 to 6.30 | > 6.30 | > 6.30 | pIC50 (A-431): > 6.30; pIC50 (U87 MG): 5.00 to 5.70; pIC50 (HCT 116; [10]): 5.70 to 6.30; pIC50 (HCT 116; [11]): 5.00 to 5.70; pIC50 (SUP-B15): 5.00 to 5.70; pIC50 (COLO 205; [12]): 5.70 to 6.30; pIC50 (COLO 205; [13]): 5.70 to 6.30; pIC50 (PANC-1): 5.70 to 6.30; pIC50 (4T1): 5.00 to 5.70; pIC50 (K-562; [14]): < 5.00; pIC50 (K-562; [15]): < 5.00; pIC50 (MV-4-11; [16]): 5.70 to 6.30; pIC50 (MV-4-11; [17]): 5.70 to 6.30; pIC50 (SK-HEP1): 5.00 to 5.70
2 | CC(C)n1cnc2c(-c3cccc(OCCCC(=O)NO)c3)nc(N3CCOCC3)nc21 [compound 1] | 5.70 to 6.30 | 5.70 to 6.30 | 5.70 to 6.30 | > 6.30 | > 6.30 | > 6.30 | 5.70 to 6.30 | 5.70 to 6.30 | 5.70 to 6.30 | 5.70 to 6.30 | 5.70 to 6.30 | 5.70 to 6.30 | 5.70 to 6.30 | > 6.30 | > 6.30 | > 6.30 | 5.70 to 6.30 | 5.70 to 6.30 | 5.70 to 6.30 | 5.70 to 6.30 | pIC50 (A-431): 5.00 to 5.70; pIC50 [1]: 7.00 to 8.00; pIC50 (U87 MG): 5.70 to 6.30; pIC50 (HCT 116; [10]): > 6.30; pIC50 (HCT 116; [11]): > 6.30; pIC50 (SUP-B15): > 6.30; pIC50 (COLO 205; [12]): 5.70 to 6.30; pIC50 (COLO 205; [13]): 5.70 to 6.30; pIC50 (PANC-1): 5.70 to 6.30; pIC50 (4T1): 5.70 to 6.30; pIC50 (K-562; [14]): 5.70 to 6.30; pIC50 (K-562; [15]): 5.70 to 6.30; pIC50 (MV-4-11; [16]): > 6.30; pIC50 (MV-4-11; [17]): > 6.30; pIC50 (SK-HEP1): 5.70 to 6.30
3 | CCn1c(CN(C)Cc2ccc(C(=O)NO)cc2)nc2c(N3CCOCC3)nc(-c3cnc(N)nc3)nc21 [compound 7] | 5.70 to 6.30 | 5.70 to 6.30 | 5.00 to 5.70 | 5.70 to 6.30 | 5.70 to 6.30 | 5.70 to 6.30 | > 6.30 | > 6.30 | 5.70 to 6.30 | 5.70 to 6.30 | 5.00 to 5.70 | 5.00 to 5.70 | 5.00 to 5.70 | 5.70 to 6.30 | 5.70 to 6.30 | > 6.30 | 5.70 to 6.30 | 5.00 to 5.70 | > 6.30 | > 6.30 | pIC50 [1]: 6.00 to 7.00; pIC50 (U87 MG): 5.00 to 5.70; pIC50 (HCT 116; [10]): 5.70 to 6.30; pIC50 (HCT 116; [11]): 5.70 to 6.30; pIC50 (SUP-B15): > 6.30; pIC50 (COLO 205; [12]): 5.70 to 6.30; pIC50 (COLO 205; [13]): 5.70 to 6.30; pIC50 (PANC-1): 5.00 to 5.70; pIC50 (4T1): 5.00 to 5.70; pIC50 (K-562; [14]): 5.70 to 6.30; pIC50 (K-562; [15]): 5.70 to 6.30; pIC50 (MV-4-11; [16]): 5.70 to 6.30; pIC50 (MV-4-11; [17]): 5.70 to 6.30; pIC50 (SK-HEP1): 5.70 to 6.30
